Data on 13 molecules can be found in ChEMBL document CHEMBL4411327, “Discovery of pyrimidine nucleoside dual prodrugs and pyrazine nucleosides as novel anti-HCV agents” (Bioorg Med Chem, 2019).

Series [1] has as its system Hepatitis C virus. Kind of series: Antiviral activity against HCV genotype 1b replicon infected in human HuH7 cells at 100 uM after 72 hrs by bright-glo luciferase reporter gene assay relative to control. In kind it is functional, Hepacivirus hominis. As to conditions: subtype 1b, Huh-7, 72 h. For orientation: A replicon is a self-replicating genome or part of one, used to study replication in cells.

Series [2] is described as follows: Cytotoxicity against human HuH7 cells infected with HCV genotype 1b replicon after 72 hrs by CellTiter-Fluor reagent based fluorescence assay. Type of series: cell-based, Huh-7.
Series [3] concerns Hepatitis C virus. Kind of series: Antiviral activity against HCV genotype 1b replicon infected in human HuH7 cells at 10 uM after 72 hrs by bright-glo luciferase reporter gene assay relative to control. Type of series: functional, Hepacivirus hominis. As to conditions: subtype 1b, Huh-7, 72 h.
Series [4] deals with Hepatitis C virus. Kind of series: Antiviral activity against HCV genotype 1b replicon infected in human HuH7 cells after 72 hrs by bright-glo luciferase reporter gene assay. In kind it is functional, organism-based, Hepacivirus hominis. As to conditions: subtype 1b, Huh-7, 72 h.
Series [5] can be described thus: Half life in human liver microsomes at 0.1 uM preincubated with MgCl2 for 10 mins followed by NADPH addition by LC-MS/MS analysis. In kind it is ADME, Microsome. Background: Liver microsomes are vesicles of endoplasmic reticulum, rich in cytochrome P450 enzymes.
Series [6] is described as follows: Stability in human plasma assessed as parent compound remaining at 40 uM measured after 0.5 hrs by LC-MS/MS analysis. Type of series: ADME, cell-free. The following applies: read-out: Stability.
The nature of series [7]: Stability in human liver microsomes assessed as parent compound remaining at 0.1 uM preincubated with MgCl2 for 10 mins followed by NADPH addition measured after 7 mins by LC-MS/MS analysis. In kind it is ADME, Microsome. The following applies: read-out: Stability.
The nature of series [8]: Stability in human liver microsomes assessed as parent compound remaining at 0.1 uM preincubated with MgCl2 for 10 mins followed by NADPH addition measured immediately by LC-MS/MS analysis. Type of series: ADME, Microsome. As to conditions: read-out: Stability.
Series [9] is described as follows: Stability in human plasma assessed as parent compound remaining at 40 uM measured after 5 hrs by LC-MS/MS analysis. In kind it is ADME, cell-free. The following applies: read-out: Stability.
The nature of series [10]: Half life in human plasma at 40 uM by LC-MS/MS analysis. In kind it is ADME, cell-free.
Series [11] in a line: Stability in human plasma assessed as parent compound remaining at 40 uM measured after 2 hrs by LC-MS/MS analysis. In kind it is ADME, cell-free. As to conditions: read-out: Stability.
A short description of series [12]: Stability in human plasma assessed as parent compound remaining at 40 uM measured after 1 hr by LC-MS/MS analysis. In kind it is ADME, cell-free. The following applies: read-out: Stability.
The nature of series [13]: Stability in human plasma assessed as parent compound remaining at 40 uM measured immediately by LC-MS/MS analysis. Type of series: ADME, cell-free. The following applies: read-out: Stability.
Series [14] can be described thus: Stability in human liver microsomes assessed as parent compound remaining at 0.1 uM preincubated with MgCl2 for 10 mins followed by NADPH addition measured after 17 mins by LC-MS/MS analysis. In kind it is ADME, Microsome.
The nature of series [15]: Metabolic bioavailability in human liver microsomes at 0.1 uM preincubated with MgCl2 for 10 mins followed by NADPH addition measured within 60 mins by LC-MS/MS analysis. Type of series: ADME, Microsome.
Series [16] in a line: Stability in human liver microsomes assessed as parent compound remaining at 0.1 uM preincubated with MgCl2 for 10 mins followed by NADPH addition measured after 60 mins by LC-MS/MS analysis. In kind it is ADME, Microsome. The following applies: read-out: Stability.
Series [17] is described as follows: Stability in human liver microsomes assessed as parent compound remaining at 0.1 uM preincubated with MgCl2 for 10 mins followed by NADPH addition measured after 30 mins by LC-MS/MS analysis. Type of series: ADME, Microsome.
Series [18] deals with Hepatitis C virus. Nature of the series: Antiviral activity against HCV genotype 1b replicon infected in human HuH7 cells at 20 uM after 72 hrs by bright-glo luciferase reporter gene assay relative to control. Type of series: functional, Hepacivirus hominis. The following applies: subtype 1b, Huh-7, 72 h.
Setting [19] is: liver microsomes, read-out: Stability.

In the case of `C[C@@]1(O)[C@H](O)[C@@H](CO)O[C@H]1n1ccnc(N)c1=O`, in the series with Hepatitis C virus [1], at 100 µM the inhibition was 22.3%. Moreover, the CC50 at 72 h in series [2] is greater than 100 µM.

`CC(C)OC(=O)[C@H](C)N[P@](=O)(OC[C@H]1O[C@@H](n2ccc(=O)n(C(C)OC(=O)OC3CCCCC3)c2=O)[C@](C)(F)[C@@H]1O)Oc1ccccc1` (some centres undefined) showed an inhibition at 10 µM in the series on Hepatitis C virus [3] of 99.9%. Besides, the midpoint of the response in the series with Hepatitis C virus [4], the EC50, lay at 0.5 µM. The CC50 at 72 h in [2] is greater than 10 µM.

Consider `CC(C)OC(=O)[C@H](C)N[P@](=O)(OC[C@H]1O[C@@H](n2ccnc(N)c2=O)[C@](C)(O)[C@@H]1O)Oc1ccccc1`, for which the EC50 in the series with Hepatitis C virus [4] amounted to 24.4 µM. Moreover, the inhibition at 100 µM in the series with Hepatitis C virus [1] turned out to be 99.8%. This molecule also showed a CC50 at 72 h in [2] of 59.6 µM.

`CCOC(=O)OCn1c(=O)ccn([C@@H]2O[C@H](CO[P@@](=O)(N[C@@H](C)C(=O)OC(C)C)Oc3ccccc3)[C@@H](O)[C@@]2(C)F)c1=O` showed an inhibition at 10 µM with Hepatitis C virus [3] of 99.3%. In addition, the midpoint of the response in the series on Hepatitis C virus [4], the EC50, lay at 0.21 µM. Also, the CC50 at 72 h in series [2] is greater than 10 µM.

Regarding `CC(C)OC(=O)OC(C)n1c(=O)ccn([C@@H]2O[C@H](CO[P@@](=O)(N[C@@H](C)C(=O)OC(C)C)Oc3ccccc3)[C@@H](O)[C@@]2(C)F)c1=O` (some centres undefined), in [5] (microsomes, 0.1 µM), the t1/2 is 13.5 min. The remaining at 0.5 h, 40 µM in [6] was 92.8%. For the same molecule, in the series with Hepatitis C virus [3], the inhibition at 10 µM is 99.8%. In addition, the remaining at 7 min, 0.1 µM in series [7] was determined as 51.2%. Besides, the remaining at 0 min, 0.1 µM in [8] came out at 100%. The remaining at 5 h, 40 µM in series [9] amounted to 78.9%. In addition, the half-life at 40 µM in [10] is 984 min. For the same molecule, in the series on Hepatitis C virus [4], the concentration for a half-maximal effect (EC50) is 0.22 µM. Also, the remaining at 2 h, 40 µM in series [11] worked out at 85.3%. Further, the remaining at 1 h, 40 µM in series [12] worked out at 90%. The molecule also had a cytotoxic concentration (CC50) at 72 h in [2] greater than 10 µM. In addition, the remaining at 0 h, 40 µM in series [13] was determined as 100%. The Stability in [14] (microsomes, 17 min, 0.1 µM) is 12.8%; in series [17] (microsomes, 0.5 h, 0.1 µM), 2.1%. The same molecule gave a Fh at 1 h, 0.1 µM in series [15] of 11.2%. In series [16], the remaining at 1 h, 0.1 µM was determined as 0%.

Regarding `CCOC(=O)n1c(=O)ccn([C@@H]2O[C@H](CO[P@@](=O)(N[C@@H](C)C(=O)OC(C)C)Oc3ccccc3)[C@@H](O)[C@@]2(C)F)c1=O`, the inhibition at 10 µM in the series on Hepatitis C virus [3] was 100%. The EC50 in the series with Hepatitis C virus [4] came out at 0.65 µM. Also, the CC50 at 72 h in [2] was greater than 10 µM.

Molecule `CCCCCOC(=O)n1c(=O)ccn([C@@H]2O[C@H](CO[P@@](=O)(N[C@@H](C)C(=O)OC(C)C)Oc3ccccc3)[C@@H](O)[C@@]2(C)F)c1=O` yielded an inhibition at 10 µM in the series with Hepatitis C virus [3] of 99.9%. The molecule further registered an EC50 with Hepatitis C virus [4] of 0.7 µM. The molecule further registered a CC50 at 72 h in series [2] greater than 10 µM.

`CC(C)OC(=O)[C@H](C)N[P@](=O)(OC[C@H]1O[C@@H](n2ccc(=O)n(C(=O)OCc3ccccc3)c2=O)[C@](C)(F)[C@@H]1O)Oc1ccccc1` yielded an inhibition at 10 µM in the series with Hepatitis C virus [3] of 99.3%. The EC50 with Hepatitis C virus [4] worked out at 0.5 µM. Besides, the CC50 at 72 h in series [2] is greater than 10 µM.

In turn, `CCOC(=O)OC(C)n1c(=O)ccn([C@@H]2O[C@H](CO[P@@](=O)(N[C@@H](C)C(=O)OC(C)C)Oc3ccccc3)[C@@H](O)[C@@]2(C)F)c1=O` (some centres undefined) yielded an inhibition at 10 µM with Hepatitis C virus [3] of 99.6%. In the series on Hepatitis C virus [4], this molecule had an EC50 of 0.22 µM. For the same molecule, the CC50 at 72 h in series [2] is greater than 10 µM.

As for `CC(C)OC(=O)[C@H](C)N[P@](=O)(OC[C@@]1(C)O[C@@H](n2ccnc(N)c2=O)[C@H](O)[C@@H]1O)Oc1ccccc1`, the EC50 in the series with Hepatitis C virus [4] was found to be 19.5 µM. The same molecule yielded an inhibition at 100 µM in the series with Hepatitis C virus [1] of 85.1%. In series [2], the CC50 at 72 h is greater than 100 µM.

Take `CC(C)COC(=O)n1c(=O)ccn([C@@H]2O[C@H](CO[P@@](=O)(N[C@@H](C)C(=O)OC(C)C)Oc3ccccc3)[C@@H](O)[C@@]2(C)F)c1=O`: the half-life at 0.1 µM in series [5] (liver microsomes) was determined as 1.44 min. The remaining at 0.5 h, 40 µM in [6] was determined as 87.3%. The molecule also registered an inhibition at 10 µM in the series on Hepatitis C virus [3] of 99.9%. Besides, the remaining at 7 min, 0.1 µM in series [7] was 3.5%. Moreover, the remaining at 0 min, 0.1 µM in [8] is 100%. In addition, the remaining at 5 h, 40 µM in [9] came to 0%. In series [10], this molecule had a half-life at 40 µM of 18 min. Also, in the series on Hepatitis C virus [4], the response was half-maximal at 0.4 µM (EC50). The remaining at 2 h, 40 µM in series [11] came out at 17.2%. In series [12], the remaining at 1 h, 40 µM is 61%. Also, the CC50 at 72 h in series [2] was greater than 10 µM. Moreover, in [13], the remaining at 0 h, 40 µM stood at 100%. In [14] (setting [19]), the remaining at 17 min, 0.1 µM was 0%. This molecule registered a Fh at 1 h, 0.1 µM in series [15] of 1.33%. The remaining at 1 h, 0.1 µM in series [16] is 0%. Also, the remaining at 0.5 h, 0.1 µM in series [17] (setting [19]) was 0%.

Take `CC=CCOc1ccn([C@@H]2O[C@H](CO[P@@](=O)(N[C@@H](C)C(=O)OC(C)C)Oc3ccccc3)[C@@H](O)[C@@]2(C)F)c(=O)n1` (mixture of isomers): the EC50 in the series with Hepatitis C virus [4] came out at 30.3 µM. In the series on Hepatitis C virus [1], this molecule registered an inhibition at 100 µM of 66.3%. This molecule registered a 50% cytotoxic concentration (CC50) at 72 h in series [2] greater than 100 µM.

For the molecule `CC(C)OC(=O)[C@H](C)N[P@](=O)(OC[C@H]1O[C@@H](n2ccc(=O)[nH]c2=O)[C@](C)(F)[C@@H]1O)Oc1ccccc1` [SOFOSBUVIR], the EC50 in the series with Hepatitis C virus [4] was 0.18 µM. In addition, in series [2], the CC50 at 72 h was greater than 20 µM. This molecule also yielded an inhibition at 20 µM in the series on Hepatitis C virus [18] of 99.9%.

Usually inhibition stands for the percentage by which the read-out fell short of the control. As a reminder, the CC50 is the concentration giving 50% cytotoxicity. A word on the EC50: it is the concentration at which the effect is half-maximal. Low readings indicate greater potency, high ones weaker potency. The half-life is the time in which the quantity being followed falls by half. Low values mean fast loss, high ones slow loss.
